Literature values, collected in US11786460B2, “Pharmaceutical dry powder composition for inhalation comprising a thyroid hormone” (priority 2018, dated 2023).

Columns and labels:
[1] = mainly in the jejunum and ileum
Calu-3 cells = conditions: in vitro

N[C@@H](Cc1cc(I)c(Oc2cc(I)c(O)c(I)c2)c(I)c1)C(=O)O [levothyroxine]
fraction absorbed after oral administration [1]: 60-80% | absorption from the respiratory mucosa (permeability) (Calu-3 cells): can be absorbed effectively from the respiratory mucosa
